Source: ChEMBL document CHEMBL1145340, “Potential lead for an Alzheimer drug: a peptide that blocks intermolecular interaction and amyloid beta protein-induced cytotoxicity” (J Med Chem, 2006)
Calls of active or inactive are those of the source. The calls are words filed in the database; no cut-off is given here. Peptide text beside a SMILES is read from it.

How the values were obtained:
PC-12 [1] = test: Protection against beta amyloid 42-induced neurotoxicity in rat PC12 cells by MTT reduction assay; type: functional, cell-based
[2] = molecular target: Amyloid-beta precursor protein (Homo sapiens) (UniProt P05067); test: Binding affinity to beta amyloid 42 by ELISA
[3] = molecular target: Amyloid-beta precursor protein (Homo sapiens) (UniProt P05067); test: Inhibition of self-aggregation of beta amyloid 42 by thioflavin T assay; type: functional
PC-12 [4] = test: Neutralizing activity against beta amyloid 42-induced cytotoxicity in rat PC12 cells at 100 uM by MTT reduction assay; type: functional, cell-based
[5] = molecular target: Amyloid-beta precursor protein (Homo sapiens) (UniProt P05067); test: Binding affinity to beta amyloid 42 at 10 uM to 100 uM by ELISA

Amyloid-beta precursor protein (Homo sapiens), sequence (P05067 whole entry): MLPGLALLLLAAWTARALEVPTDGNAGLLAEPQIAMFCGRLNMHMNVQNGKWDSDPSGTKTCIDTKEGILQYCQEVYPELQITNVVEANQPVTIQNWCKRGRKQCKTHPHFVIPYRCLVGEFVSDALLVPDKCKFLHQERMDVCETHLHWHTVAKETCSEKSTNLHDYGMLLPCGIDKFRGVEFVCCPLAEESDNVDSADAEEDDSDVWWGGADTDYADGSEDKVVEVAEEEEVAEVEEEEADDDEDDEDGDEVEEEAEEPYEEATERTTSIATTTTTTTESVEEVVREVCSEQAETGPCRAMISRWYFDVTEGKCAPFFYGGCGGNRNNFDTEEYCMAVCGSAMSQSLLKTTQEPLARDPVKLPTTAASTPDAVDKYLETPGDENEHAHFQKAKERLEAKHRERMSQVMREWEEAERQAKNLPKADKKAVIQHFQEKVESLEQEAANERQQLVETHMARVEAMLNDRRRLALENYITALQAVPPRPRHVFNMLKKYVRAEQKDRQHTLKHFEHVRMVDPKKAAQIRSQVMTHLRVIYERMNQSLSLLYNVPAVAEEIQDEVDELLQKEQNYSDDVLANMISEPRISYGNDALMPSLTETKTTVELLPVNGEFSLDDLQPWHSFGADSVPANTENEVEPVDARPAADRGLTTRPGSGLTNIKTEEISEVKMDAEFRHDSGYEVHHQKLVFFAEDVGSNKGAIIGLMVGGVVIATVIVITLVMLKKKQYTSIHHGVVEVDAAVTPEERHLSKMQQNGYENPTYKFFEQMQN

Row | Compound | Activity (PC-12 [1]) | also measured
1 | CC(C)[C@H](NC(=O)[C@H](Cc1ccccc1)NC(=O)[C@@H](N)[C@H](C)O)C(=O)N[C@@H](CCCN=C(N)N)C(=O)N[C@H](C(=O)O)[C@H](C)O | inactive | –
2 | CC(C)[C@H](NC(=O)[C@H](Cc1ccccc1)NC(=O)[C@@H](NC(=O)[C@@H](N)CS)[C@H](C)O)C(=O)N[C@@H](CCCN=C(N)N)C(=O)O | inactive | Activity [2]: Active
3 | CC[C@H](C)[C@H](NC(=O)[C@H](Cc1c[nH]cn1)NC(=O)[C@@H](NC(=O)[C@H](CCCN=C(N)N)NC(=O)[C@@H](NC(=O)[C@H](Cc1ccccc1)NC(=O)[C@@H](NC(=O)[C@@H](N)CS)[C@@H](C)O)C(C)C)[C@@H](C)O)C(=O)N[C@@H](Cc1ccccc1)C(=O)N[C@@H](CS)C(=O)N[C@@H](CCCCN)C(=O)N[C@@H](CCC(=O)O)C(=O)N[C@@H](Cc1c[nH]cn1)C(=O)N[C@@H](CCC(N)=O)C(=O)N[C@@H](Cc1ccccc1)C(=O)O (H-CTFVRTHIFCKEHQF-OH) | Dose-dependent effect | Activity [2]: Active; Activity [3]: Dose-dependent effect
4 | H-CKEHQ-OH | inactive | –
5 | H-FCKEH-OH | inactive | –
6 | H-FNHKKRLLHPSLFPR-OH | – | Activity [2]: inactive; Activity [3]: inactive
7 | H-FVRTH-OH | inactive | –
8 | H-HESNDCTFV-OH | – | Activity [2]: inactive
9 | H-HESNDCTFVRT-OH | – | Activity (PC-12 [4]): inactive; Activity [5]: Active
10 | H-HIFCK-OH | inactive | –
11 | H-IFCKE-OH | inactive | –
12 | H-KEHQF-OH | inactive | Activity [3]: inactive
13 | H-THIFC-OH | inactive | –
14 | H-VRTHI-OH | inactive | –
